From patent publication US8013156B2 (Exelixis, Inc., priority 2003, dated 2011)

These compounds were tested against Tie-2 (Homo sapiens, UniProt Q02763) (assay: Tie-2 tyrosine kinase activity assay (luciferase/luciferin ATP consumption with pEY substrate, or 33P-ATP incorporation)). Conditions: human enzyme Tie-2.
Tie-2, sequence (Q02763 23-1124): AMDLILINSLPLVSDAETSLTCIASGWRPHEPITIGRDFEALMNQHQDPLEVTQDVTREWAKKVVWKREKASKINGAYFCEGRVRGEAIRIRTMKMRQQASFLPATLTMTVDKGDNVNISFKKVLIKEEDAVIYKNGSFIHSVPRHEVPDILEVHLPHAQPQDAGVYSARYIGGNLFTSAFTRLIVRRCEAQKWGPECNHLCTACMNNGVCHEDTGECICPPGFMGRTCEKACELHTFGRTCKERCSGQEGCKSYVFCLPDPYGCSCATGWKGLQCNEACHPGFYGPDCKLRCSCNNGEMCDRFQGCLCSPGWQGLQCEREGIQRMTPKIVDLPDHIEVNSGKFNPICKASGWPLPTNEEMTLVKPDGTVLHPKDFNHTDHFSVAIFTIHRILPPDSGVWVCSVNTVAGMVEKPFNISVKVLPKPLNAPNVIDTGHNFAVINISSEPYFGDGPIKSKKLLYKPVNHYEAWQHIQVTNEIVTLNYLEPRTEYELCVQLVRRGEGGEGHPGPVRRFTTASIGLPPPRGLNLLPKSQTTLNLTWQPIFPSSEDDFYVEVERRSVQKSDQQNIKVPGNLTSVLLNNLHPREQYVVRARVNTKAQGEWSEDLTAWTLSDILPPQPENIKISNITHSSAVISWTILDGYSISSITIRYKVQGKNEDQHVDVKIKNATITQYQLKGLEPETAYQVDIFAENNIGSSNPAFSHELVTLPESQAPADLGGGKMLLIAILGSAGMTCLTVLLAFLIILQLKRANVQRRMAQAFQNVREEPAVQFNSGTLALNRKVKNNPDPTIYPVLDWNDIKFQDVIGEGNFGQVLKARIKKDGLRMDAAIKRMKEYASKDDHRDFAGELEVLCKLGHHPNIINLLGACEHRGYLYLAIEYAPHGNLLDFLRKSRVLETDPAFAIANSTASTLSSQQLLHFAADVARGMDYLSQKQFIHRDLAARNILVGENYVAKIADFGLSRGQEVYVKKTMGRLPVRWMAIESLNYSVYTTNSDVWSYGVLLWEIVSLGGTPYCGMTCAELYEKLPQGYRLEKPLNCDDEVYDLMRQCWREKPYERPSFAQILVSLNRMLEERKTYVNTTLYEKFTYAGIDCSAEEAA
Type: biochemical
Outline: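 Values are IC50 categories (A <50 nM to D ≥10,000 nM), with Ki obtainable by fitting rates to a tight-binding model. Assay formats: 33P-ATP phosphate transfer to adsorbed generic substrate counted by scintillation, or luciferase-detected ATP depletion using pEY.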
With `Nc1nccc(COc2cccnc2N2CCN(C(=O)Nc3cccc(C4CC4)c3)CC2)n1` [Example 210, 4-(3-{[(2-aminopyrimidin-4-yl)methyl]oxy}pyridin-2-yl)-N-(3-cyclopropylphenyl)piperazine-1-carboxamide] the IC50 was less than 50 nM. Work on `CN1CCN(CC(=O)Nc2cc(COc3cccnc3N3CCN(C(=O)Nc4cc(C(F)(F)F)ccc4F)CC3)ccn2)CC1` [Example 211, N-[2-fluoro-5-(trifluoromethyl)phenyl]-4-(3-{[(2-{[(4-methylpiperazin-1-yl)acetyl]amino}pyridin-4-yl)methyl]oxy}pyridin-2-yl)piperazine-1-carboxamide] yielded an IC50 of 50 to 1000 nM. `CN1CCN(CC(=O)Nc2cc(COc3cccnc3N3CCN(C(=O)Nc4cc(F)cc(C(F)(F)F)c4)CC3)ccn2)CC1` [Example 212, N-[3-fluoro-5-(trifluoromethyl)phenyl]-4-(3-{[(2-{[(4-methylpiperazin-1-yl)acetyl]amino}pyridin-4-yl)methyl]oxy}pyridin-2-yl)piperazine-1-carboxamide] was tested, and the IC50 was less than 50 nM. In the case of `CN1CCN(CC(=O)Nc2cc(COc3cccnc3N3CCN(C(=O)Nc4cc(Cl)cc(Cl)c4)CC3)ccn2)CC1` [Example 213, N-(3,5-dichlorophenyl)-4-(3-{[(2-{[(4-methylpiperazin-1-yl)acetyl]amino}pyridin-4-yl)methyl]oxy}pyridin-2-yl)piperazine-1-carboxamide], the IC50 is reported as less than 50 nM. For `CN1CCN(CC(=O)Nc2cc(COc3cccnc3N3CCN(C(=O)Nc4cccc(C(F)(F)F)c4)CC3)ccn2)CC1` [Example 214, 4-(3-{[(2-{[(4-methylpiperazin-1-yl)acetyl]amino}pyridin-4-yl)methyl]oxy}pyridin-2-yl)-N-[3-(trifluoromethyl)phenyl]piperazine-1-carboxamide], the IC50 was less than 50 nM. In the case of `CCc1cc(CC)cc(NC(=O)N2CCN(c3nccnc3OCc3ccnc(N)n3)CC2)c1` [Example 215, 4-(3-{[(2-aminopyrimidin-4-yl)methyl]oxy}pyrazin-2-yl)-N-(3,5-diethylphenyl)piperazine-1-carboxamide], the IC50 is reported as less than 50 nM. Work on `CC(Oc1cccnc1N1CCN(C(=O)Nc2cc(C(F)(F)F)cc(C(F)(F)F)c2)CC1)c1ccnc(N)n1` (centres unmarked) [Example 216, 4-(3-{[1-(2-aminopyrimidin-4-yl)ethyl]oxy}pyridin-2-yl)-N-[3,5-bis(trifluoromethyl)phenyl]piperazine-1-carboxamide] yielded an IC50 of less than 50 nM. `Nc1nccc(COc2nccnc2N2CCN(C(=O)Nc3cc(Cl)cc(Cl)c3)CC2)n1` [Example 217, 4-(3-{[(2-aminopyrimidin-4-yl)methyl]oxy}pyrazin-2-yl)-N-(3,5-dichlorophenyl)piperazine-1-carboxamide] gave an IC50 of less than 50 nM. In the case of `Nc1nccc(COc2nccnc2N2CCN(C(=O)Nc3cc(F)cc(C(F)(F)F)c3)CC2)n1` [Example 218, 4-(3-{[(2-aminopyrimidin-4-yl)methyl]oxy}pyrazin-2-yl)-N-[3-fluoro-5-(trifluoromethyl)phenyl]piperazine-1-carboxamide], the IC50 is reported as less than 50 nM. `Nc1nccc(COc2cccnc2N2CCN(C(=O)N3CCCc4ccccc43)CC2)n1` [Example 219, 4-[({2-[4-(3,4-dihydroquinolin-1(2H)-ylcarbonyl)piperazin-1-yl]pyridin-3-yl}oxy)methyl]pyrimidin-2-amine] gave an IC50 of no less than 10000 nM. `CC(C)CNC(=O)N1CCN(c2ncccc2OCc2ccnc(N)n2)CC1` [Example 220, 4-(3-{[(2-aminopyrimidin-4-yl)methyl]oxy}pyridin-2-yl)-N-(2-methylpropyl)piperazine-1-carboxamide] was tested, and the IC50 was no less than 10000 nM. For `CCc1cc(Cl)cc(NC(=O)N2CCN(c3nsnc3OCc3ccnc(N)n3)CC2)c1` [Example 221, 4-(4-{[(2-aminopyrimidin-4-yl)methyl]oxy}-1,2,5-thiadiazol-3-yl)-N-(3-chloro-5-ethylphenyl)piperazine-1-carboxamide], the IC50 was less than 50 nM. Work on `CCc1ccc(F)c(NC(=O)N2CCN(c3nsnc3OCc3ccnc(N)n3)CC2)c1` [Example 222, 4-(4-{[(2-aminopyrimidin-4-yl)methyl]oxy}-1,2,5-thiadiazol-3-yl)-N-(5-ethyl-2-fluorophenyl)piperazine-1-carboxamide] yielded an IC50 of 50 to 1000 nM. Compound `Nc1nccc(COc2nsnc2N2CCN(C(=O)Nc3cc(Cl)cc(Cl)c3)CC2)n1` [Example 223, 4-(4-{[(2-aminopyrimidin-4-yl)methyl]oxy}-1,2,5-thiadiazol-3-yl)-N-(3,5-dichlorophenyl)piperazine-1-carboxamide] has an IC50 of 50 to 1000 nM. Compound `Nc1nccc(COc2nccnc2N2CCN(C(=O)Nc3ccccc3)CC2)n1` [Example 224, 4-(3-{[(2-aminopyrimidin-4-yl)methyl]oxy}pyrazin-2-yl)-N-phenylpiperazine-1-carboxamide] has an IC50 of 50 to 1000 nM. In the case of `Nc1nccc(COc2nccnc2N2CCN(C(=O)Nc3cc(C(F)(F)F)ccc3F)CC2)n1` [Example 225, 4-(3-{[(2-aminopyrimidin-4-yl)methyl]oxy}pyrazin-2-yl)-N-[2-fluoro-5-(trifluoromethyl)phenyl]piperazine-1-carboxamide], the IC50 is reported as less than 50 nM. In the case of `CCc1cccc(NC(=O)N2CCN(c3nc(C)ccc3OCc3ccnc(N)n3)CC2)c1` [Example 227, 4-(3-{[(2-aminopyrimidin-4-yl)methyl]oxy}-6-methylpyridin-2-yl)-N-(3-ethylphenyl)piperazine-1-carboxamide], the IC50 is reported as less than 50 nM. `Cc1ccc(OCc2ccnc(N)n2)c(N2CCN(C(=O)Nc3cc(C(F)(F)F)cc(C(F)(F)F)c3)CC2)n1` [Example 228, 4-(3-{[(2-aminopyrimidin-4-yl)methyl]oxy}-6-methylpyridin-2-yl)-N-[3,5-bis(trifluoromethyl)phenyl]piperazine-1-carboxamide] showed an IC50 of less than 50 nM. For `Nc1nccc(COc2nccnc2N2CCN(C(=O)Nc3cccc(C(F)(F)F)c3)CC2)n1` [Example 229, 4-(3-{[(2-aminopyrimidin-4-yl)methyl]oxy}pyrazin-2-yl)-N-[3-(trifluoromethyl)phenyl]piperazine-1-carboxamide], the IC50 was less than 50 nM. For `Nc1nccc(COc2nsnc2N2CCN(C(=O)Nc3ccccc3)CC2)n1` [Example 230, 4-(4-{[(2-aminopyrimidin-4-yl)methyl]oxy}-1,2,5-thiadiazol-3-yl)-N-phenylpiperazine-1-carboxamide], the IC50 was no less than 10000 nM. `Nc1nccc(COc2nsnc2N2CCN(C(=O)Nc3cccc(C(F)(F)F)c3)CC2)n1` [Example 231, 4-(4-{[(2-aminopyrimidin-4-yl)methyl]oxy}-1,2,5-thiadiazol-3-yl)-N-[3-(trifluoromethyl)phenyl]piperazine-1-carboxamide] showed an IC50 of less than 50 nM. `Nc1nccc(COc2nsnc2N2CCN(C(=O)Nc3cc(C(F)(F)F)ccc3F)CC2)n1` [Example 232, 4-(4-{[(2-aminopyrimidin-4-yl)methyl]oxy}-1,2,5-thiadiazol-3-yl)-N-[2-fluoro-5-(trifluoromethyl)phenyl]piperazine-1-carboxamide] showed an IC50 of 50 to 1000 nM. With `CN1CCN(CC(=O)Nc2cc(COc3cccnc3N3CCN(C(=O)Nc4cc(Cl)cc(C(F)(F)F)c4)CC3)ccn2)CC1` [Example 233, N-[3-chloro-5-(trifluoromethyl)phenyl]-4-(3-{[(2-{[(4-methylpiperazin-1-yl)acetyl]amino}pyridin-4-yl)methyl]oxy}pyridin-2-yl)piperazine-1-carboxamide] the IC50 was less than 50 nM.
